{
  "source": "the kinase profiling compilation of Christmann-Franck et al. (2016)",
  "assay_in_all_cases": "KINOMEscan competition binding",
  "conditions_in_all_cases": "compound 1.0 µM",
  "key": {"ANKK1 (human)": {"molecular_target": "ANKK1 (human) (UniProt Q8NFD2)"}, "HIPK2 (human)": {"molecular_target": "HIPK2 (human) (UniProt Q9H2X6)"}, "[1]": {"system": "EGFR (human), P00533 [L861Q]"}, "STK33 (human)": {"molecular_target": "STK33 (human) (UniProt Q9BYT3)", "sequence (Q9BYT3 whole entry, looked up)": "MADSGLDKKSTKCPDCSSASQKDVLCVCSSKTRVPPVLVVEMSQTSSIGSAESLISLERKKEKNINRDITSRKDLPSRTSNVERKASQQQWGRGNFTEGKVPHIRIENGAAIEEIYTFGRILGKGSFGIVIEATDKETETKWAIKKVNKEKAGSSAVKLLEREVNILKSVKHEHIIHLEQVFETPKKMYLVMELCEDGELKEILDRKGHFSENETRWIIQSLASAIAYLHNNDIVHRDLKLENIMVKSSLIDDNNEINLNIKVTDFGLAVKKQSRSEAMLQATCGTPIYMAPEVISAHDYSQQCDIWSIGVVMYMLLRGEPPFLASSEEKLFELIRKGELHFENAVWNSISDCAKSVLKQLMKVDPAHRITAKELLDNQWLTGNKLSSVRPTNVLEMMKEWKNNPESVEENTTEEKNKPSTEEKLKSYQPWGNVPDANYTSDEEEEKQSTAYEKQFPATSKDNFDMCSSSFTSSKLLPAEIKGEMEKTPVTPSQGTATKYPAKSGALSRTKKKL"}, "EPHA7 (human)": {"molecular_target": "EPHA7 (human) (UniProt Q15375)"}, "SIK2 (human)": {"molecular_target": "SIK2 (human) (UniProt Q9H0K1)"}, "TGFBR2 (human)": {"molecular_target": "TGFBR2 (human) (UniProt P37173)"}, "BMX (human)": {"molecular_target": "BMX (human) (UniProt P51813)"}, "PIK3C2G (human)": {"molecular_target": "PIK3C2G (human) (UniProt O75747)", "sequence (O75747 whole entry, looked up)": "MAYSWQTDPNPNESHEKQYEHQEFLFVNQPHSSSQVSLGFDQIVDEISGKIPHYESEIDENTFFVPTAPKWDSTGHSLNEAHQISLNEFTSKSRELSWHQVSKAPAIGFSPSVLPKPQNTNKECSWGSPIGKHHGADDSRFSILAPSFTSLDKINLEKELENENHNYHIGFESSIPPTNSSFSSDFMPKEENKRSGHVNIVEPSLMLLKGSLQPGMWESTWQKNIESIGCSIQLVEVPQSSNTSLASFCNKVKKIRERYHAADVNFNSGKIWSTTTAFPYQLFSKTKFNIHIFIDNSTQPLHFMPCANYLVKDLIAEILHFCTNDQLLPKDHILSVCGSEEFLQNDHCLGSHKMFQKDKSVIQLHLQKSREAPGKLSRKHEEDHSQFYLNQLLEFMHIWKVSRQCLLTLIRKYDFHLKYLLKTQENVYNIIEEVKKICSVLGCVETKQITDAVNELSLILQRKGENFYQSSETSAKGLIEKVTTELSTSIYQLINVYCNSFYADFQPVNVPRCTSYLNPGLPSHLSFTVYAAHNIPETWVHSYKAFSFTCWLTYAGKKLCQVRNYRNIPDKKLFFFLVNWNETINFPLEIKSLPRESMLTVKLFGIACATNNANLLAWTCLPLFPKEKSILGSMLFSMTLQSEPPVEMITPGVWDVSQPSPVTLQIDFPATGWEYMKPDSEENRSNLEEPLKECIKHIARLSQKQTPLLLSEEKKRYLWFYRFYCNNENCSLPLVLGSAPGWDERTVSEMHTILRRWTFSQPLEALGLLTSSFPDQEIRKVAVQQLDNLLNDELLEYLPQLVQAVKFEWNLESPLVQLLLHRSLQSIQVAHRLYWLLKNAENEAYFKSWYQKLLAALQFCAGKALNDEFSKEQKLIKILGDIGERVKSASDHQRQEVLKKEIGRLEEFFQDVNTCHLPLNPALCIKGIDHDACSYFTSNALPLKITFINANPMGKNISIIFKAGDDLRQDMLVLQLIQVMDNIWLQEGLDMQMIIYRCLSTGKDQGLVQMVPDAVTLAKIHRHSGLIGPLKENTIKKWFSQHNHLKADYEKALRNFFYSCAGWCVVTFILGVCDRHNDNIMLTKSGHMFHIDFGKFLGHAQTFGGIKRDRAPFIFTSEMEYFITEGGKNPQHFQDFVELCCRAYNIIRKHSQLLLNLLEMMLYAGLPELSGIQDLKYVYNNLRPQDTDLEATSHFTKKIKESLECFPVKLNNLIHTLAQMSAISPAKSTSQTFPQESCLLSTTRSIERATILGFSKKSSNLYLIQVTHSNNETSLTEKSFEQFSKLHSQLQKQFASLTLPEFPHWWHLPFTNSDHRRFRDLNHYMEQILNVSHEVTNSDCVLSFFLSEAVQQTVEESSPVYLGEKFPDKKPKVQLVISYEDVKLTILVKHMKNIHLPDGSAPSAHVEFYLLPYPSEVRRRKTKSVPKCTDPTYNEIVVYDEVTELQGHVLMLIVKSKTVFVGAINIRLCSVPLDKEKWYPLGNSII"}, "MKNK1 (human)": {"molecular_target": "MKNK1 (human) (UniProt Q9BUB5)"}, "SNRK (human)": {"molecular_target": "SNRK (human) (UniProt Q9NRH2)"}, "PI4KB (human)": {"molecular_target": "PI4KB (human) (UniProt Q9UBF8)"}, "RIPK1 (human)": {"molecular_target": "RIPK1 (human) (UniProt Q13546)", "sequence (Q13546 whole entry, looked up)": "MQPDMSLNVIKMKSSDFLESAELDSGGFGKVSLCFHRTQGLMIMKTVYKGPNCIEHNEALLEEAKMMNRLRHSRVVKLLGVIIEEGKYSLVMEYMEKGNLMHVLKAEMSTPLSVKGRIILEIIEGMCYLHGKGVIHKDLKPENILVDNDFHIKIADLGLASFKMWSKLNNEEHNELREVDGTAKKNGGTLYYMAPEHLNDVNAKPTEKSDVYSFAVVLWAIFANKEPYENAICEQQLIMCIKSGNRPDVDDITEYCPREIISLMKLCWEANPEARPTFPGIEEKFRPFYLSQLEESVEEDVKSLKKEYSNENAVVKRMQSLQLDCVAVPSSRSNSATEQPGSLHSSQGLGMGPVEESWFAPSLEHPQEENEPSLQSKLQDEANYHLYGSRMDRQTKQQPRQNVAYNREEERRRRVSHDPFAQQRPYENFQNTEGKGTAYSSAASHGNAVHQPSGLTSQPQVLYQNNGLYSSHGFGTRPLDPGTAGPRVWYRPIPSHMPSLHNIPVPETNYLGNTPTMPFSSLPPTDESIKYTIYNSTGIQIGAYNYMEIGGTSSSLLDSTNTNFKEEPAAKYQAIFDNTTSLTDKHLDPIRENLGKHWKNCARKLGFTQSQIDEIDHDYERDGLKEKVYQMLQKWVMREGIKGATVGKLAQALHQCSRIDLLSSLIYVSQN"}, "MAP3K6 (human)": {"molecular_target": "MAP3K6 (human) (UniProt O95382)"}, "CAMK2B (human)": {"molecular_target": "CAMK2B (human) (UniProt Q13554)"}, "STK17A (human)": {"molecular_target": "STK17A (human) (UniProt Q9UEE5)"}, "TAOK3 (human)": {"molecular_target": "TAOK3 (human) (UniProt Q9H2K8)", "sequence (Q9H2K8 whole entry, looked up)": "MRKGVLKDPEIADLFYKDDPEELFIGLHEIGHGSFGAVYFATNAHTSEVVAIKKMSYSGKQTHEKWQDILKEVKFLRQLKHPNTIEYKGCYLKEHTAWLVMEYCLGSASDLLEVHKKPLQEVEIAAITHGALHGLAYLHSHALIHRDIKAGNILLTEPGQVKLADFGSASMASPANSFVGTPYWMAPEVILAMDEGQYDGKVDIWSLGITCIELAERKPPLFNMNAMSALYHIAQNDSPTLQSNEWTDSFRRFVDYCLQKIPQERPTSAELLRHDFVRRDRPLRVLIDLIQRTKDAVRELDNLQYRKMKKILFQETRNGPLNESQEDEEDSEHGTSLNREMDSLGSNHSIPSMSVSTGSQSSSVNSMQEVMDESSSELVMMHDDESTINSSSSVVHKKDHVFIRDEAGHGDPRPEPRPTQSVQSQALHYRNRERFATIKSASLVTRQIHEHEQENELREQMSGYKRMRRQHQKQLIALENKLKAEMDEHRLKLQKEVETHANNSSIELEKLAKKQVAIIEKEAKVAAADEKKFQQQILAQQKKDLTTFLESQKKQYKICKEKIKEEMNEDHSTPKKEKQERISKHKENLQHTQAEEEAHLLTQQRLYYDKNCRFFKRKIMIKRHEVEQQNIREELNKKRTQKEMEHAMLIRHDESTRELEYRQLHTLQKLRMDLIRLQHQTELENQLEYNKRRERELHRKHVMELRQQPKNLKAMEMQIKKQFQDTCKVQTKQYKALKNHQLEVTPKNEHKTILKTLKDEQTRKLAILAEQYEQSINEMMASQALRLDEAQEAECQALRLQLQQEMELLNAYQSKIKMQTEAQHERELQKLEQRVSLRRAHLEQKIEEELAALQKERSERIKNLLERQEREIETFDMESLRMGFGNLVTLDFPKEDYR"}, "MAP2K4 (human)": {"molecular_target": "MAP2K4 (human) (UniProt P45985)"}, "PRKCH (human)": {"molecular_target": "PRKCH (human) (UniProt P24723)"}, "PAK4 (human)": {"molecular_target": "PAK4 (human) (UniProt O96013)"}, "NEK1 (human)": {"molecular_target": "NEK1 (human) (UniProt Q96PY6)"}, "ERN1 (human)": {"molecular_target": "ERN1 (human) (UniProt O75460)"}, "DCLK3 (human)": {"molecular_target": "DCLK3 (human) (UniProt Q9C098)"}, "PIM3 (human)": {"molecular_target": "PIM3 (human) (UniProt Q86V86)"}, "[2]": {"system": "EGFR (human), P00533 [747-751 del / S ins]"}, "ULK1 (human)": {"molecular_target": "ULK1 (human) (UniProt O75385)"}, "HUNK (human)": {"molecular_target": "HUNK (human) (UniProt P57058)"}, "GSK3B (human)": {"molecular_target": "GSK3B (human) (UniProt P49841)"}, "GRK4 (human)": {"molecular_target": "GRK4 (human) (UniProt P32298)"}, "[3]": {"system": "RET (human), P07949 [M918T]"}, "EPHB1 (human)": {"molecular_target": "EPHB1 (human) (UniProt P54762)"}, "MAP3K1 (human)": {"molecular_target": "MAP3K1 (human) (UniProt Q13233)"}, "PAK2 (human)": {"molecular_target": "PAK2 (human) (UniProt Q13177)"}, "CLK2 (human)": {"molecular_target": "CLK2 (human) (UniProt P49760)"}, "SLK (human)": {"molecular_target": "SLK (human) (UniProt Q9H2G2)"}, "STK25 (human)": {"molecular_target": "STK25 (human) (UniProt O00506)"}, "MAPK4 (human)": {"molecular_target": "MAPK4 (human) (UniProt P31152)"}, "ULK2 (human)": {"molecular_target": "ULK2 (human) (UniProt Q8IYT8)"}, "MLTK (human)": {"molecular_target": "MLTK (human) (UniProt Q9NYL2)", "sequence (Q9NYL2 whole entry, looked up)": "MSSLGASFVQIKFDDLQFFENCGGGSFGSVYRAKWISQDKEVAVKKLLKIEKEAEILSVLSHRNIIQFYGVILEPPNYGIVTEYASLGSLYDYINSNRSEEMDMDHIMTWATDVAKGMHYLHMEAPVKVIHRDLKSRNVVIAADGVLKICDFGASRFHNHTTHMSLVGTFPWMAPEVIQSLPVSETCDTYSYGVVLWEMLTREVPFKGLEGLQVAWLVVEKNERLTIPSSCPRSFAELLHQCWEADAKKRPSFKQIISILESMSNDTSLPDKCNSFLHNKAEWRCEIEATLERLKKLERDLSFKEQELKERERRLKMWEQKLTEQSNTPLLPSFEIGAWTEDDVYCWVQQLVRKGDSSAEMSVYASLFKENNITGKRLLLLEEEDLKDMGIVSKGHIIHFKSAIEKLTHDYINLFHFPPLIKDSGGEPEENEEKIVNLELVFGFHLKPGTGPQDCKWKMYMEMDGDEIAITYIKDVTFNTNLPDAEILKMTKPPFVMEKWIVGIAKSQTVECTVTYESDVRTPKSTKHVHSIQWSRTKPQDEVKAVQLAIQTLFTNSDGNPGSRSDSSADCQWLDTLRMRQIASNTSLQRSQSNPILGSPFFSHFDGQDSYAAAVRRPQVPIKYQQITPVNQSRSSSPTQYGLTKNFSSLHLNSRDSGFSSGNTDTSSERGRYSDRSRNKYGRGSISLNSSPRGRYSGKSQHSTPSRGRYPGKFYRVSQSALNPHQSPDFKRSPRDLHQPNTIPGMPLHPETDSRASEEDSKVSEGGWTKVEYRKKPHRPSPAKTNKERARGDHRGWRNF"}},
  "data": [
    {"molecule": "CNc1nc(Nc2ccc(C(=O)N3CCOCC3)cc2OC)ncc1Cl", "values": [
      {"measurement": "kinase still bound, per cent of control", "setting": "ANKK1 (human)", "value": 100, "unit": "%"},
      {"measurement": "kinase still bound, per cent of control", "setting": "HIPK2 (human)", "value": 100, "unit": "%"},
      {"measurement": "kinase still bound, per cent of control", "setting": "[1]", "value": 100, "unit": "%"},
      {"measurement": "kinase still bound, per cent of control", "setting": "STK33 (human)", "value": 38, "unit": "%"},
      {"measurement": "kinase still bound, per cent of control", "setting": "EPHA7 (human)", "value": 100, "unit": "%"},
      {"measurement": "kinase still bound, per cent of control", "setting": "SIK2 (human)", "value": 100, "unit": "%"},
      {"measurement": "kinase still bound, per cent of control", "setting": "TGFBR2 (human)", "value": 100, "unit": "%"},
      {"measurement": "kinase still bound, per cent of control", "setting": "BMX (human)", "value": 100, "unit": "%"},
      {"measurement": "kinase still bound, per cent of control", "setting": "PIK3C2G (human)", "value": 71, "unit": "%"},
      {"measurement": "kinase still bound, per cent of control", "setting": "MKNK1 (human)", "value": 88, "unit": "%"},
      {"measurement": "kinase still bound, per cent of control", "setting": "SNRK (human)", "value": 100, "unit": "%"},
      {"measurement": "kinase still bound, per cent of control", "setting": "PI4KB (human)", "value": 100, "unit": "%"},
      {"measurement": "kinase still bound, per cent of control", "setting": "RIPK1 (human)", "value": 100, "unit": "%"},
      {"measurement": "kinase still bound, per cent of control", "setting": "MAP3K6 (human)", "value": 100, "unit": "%"},
      {"measurement": "kinase still bound, per cent of control", "setting": "CAMK2B (human)", "value": 89, "unit": "%"},
      {"measurement": "kinase still bound, per cent of control", "setting": "STK17A (human)", "value": 53, "unit": "%"},
      {"measurement": "kinase still bound, per cent of control", "setting": "TAOK3 (human)", "value": 100, "unit": "%"},
      {"measurement": "kinase still bound, per cent of control", "setting": "MAP2K4 (human)", "value": 78, "unit": "%"},
      {"measurement": "kinase still bound, per cent of control", "setting": "PRKCH (human)", "value": 100, "unit": "%"},
      {"measurement": "kinase still bound, per cent of control", "setting": "PAK4 (human)", "value": 100, "unit": "%"},
      {"measurement": "kinase still bound, per cent of control", "setting": "NEK1 (human)", "value": 91, "unit": "%"},
      {"measurement": "kinase still bound, per cent of control", "setting": "ERN1 (human)", "value": 88, "unit": "%"},
      {"measurement": "kinase still bound, per cent of control", "setting": "DCLK3 (human)", "value": 100, "unit": "%"},
      {"measurement": "kinase still bound, per cent of control", "setting": "PIM3 (human)", "value": 100, "unit": "%"},
      {"measurement": "kinase still bound, per cent of control", "setting": "[2]", "value": 100, "unit": "%"},
      {"measurement": "kinase still bound, per cent of control", "setting": "ULK1 (human)", "value": 100, "unit": "%"},
      {"measurement": "kinase still bound, per cent of control", "setting": "HUNK (human)", "value": 98, "unit": "%"},
      {"measurement": "kinase still bound, per cent of control", "setting": "GSK3B (human)", "value": 97, "unit": "%"},
      {"measurement": "kinase still bound, per cent of control", "setting": "GRK4 (human)", "value": 75, "unit": "%"},
      {"measurement": "kinase still bound, per cent of control", "setting": "[3]", "value": 100, "unit": "%"},
      {"measurement": "kinase still bound, per cent of control", "setting": "EPHB1 (human)", "value": 100, "unit": "%"},
      {"measurement": "kinase still bound, per cent of control", "setting": "MAP3K1 (human)", "value": 65, "unit": "%"},
      {"measurement": "kinase still bound, per cent of control", "setting": "PAK2 (human)", "value": 95, "unit": "%"},
      {"measurement": "kinase still bound, per cent of control", "setting": "CLK2 (human)", "value": 84, "unit": "%"},
      {"measurement": "kinase still bound, per cent of control", "setting": "SLK (human)", "value": 100, "unit": "%"},
      {"measurement": "kinase still bound, per cent of control", "setting": "STK25 (human)", "value": 100, "unit": "%"},
      {"measurement": "kinase still bound, per cent of control", "setting": "MAPK4 (human)", "value": 100, "unit": "%"},
      {"measurement": "kinase still bound, per cent of control", "setting": "ULK2 (human)", "value": 85, "unit": "%"},
      {"measurement": "kinase still bound, per cent of control", "setting": "MLTK (human)", "value": 100, "unit": "%"}
    ]}
  ]
}
